A word on the IC50: it is the concentration at which inhibition is half-maximal.

For one assay, the target named is DGKα (Homo sapiens (Human), UniProt P23743). Kind of assay: In vitro DGKα inhibition assay (ADP-Glo). The assay is classed as biochemical. As to conditions: His-tagged human recombinant DGKα 0.1 nM, 50 μM ATP, 20 μM DLG. The procedure:
(§1) The DGKα and DGKζ biochemical reactions were performed using His-tagged human recombinant enzymes (Signal Chem, DGKα, #D21-10BH; DGKζ, #D30-10H)) and DLG (Dilauroyl-sn-glycerol) lipid substrate (Signal Chem, #D430-59). ADP-Glo assay was performed using ADP-Glo™ kinase Assay kit (Promega, #V9104). The reactions were carried out in assay buffer containing 40 mM Tris, pH 7.5, 0.1% CHAPS, 0.1% Prionex, 40 mM NaCl, 5 mM MgCl2, 1 mM CaCl2, and 1 mM DTT. DGKα reactions contained 0.1 nM DGKα, 50 μM ATP, and 20 μM DLG. And DGKζ reactions contained 0.4 nM DGKζ, 30 μM ATP, and 20 μM DLG.
(§2) For compound inhibition studies, 40 nL test compound in DMSO was added to wells of white polystyrene plates in 384-well (Greiner, #784075) or 1536-well format (Greiner, #782075). Compounds were added with top concentration of 2 mM with 11 point, 3-fold dilution series. Enzyme solution (contains 2×DGK enzyme concentration in 1× assay buffer) was added to the plate in 2 μL/well volume, followed by 2 μL/well of substrate solution (contains 2×concentration of ATP and DLG substrate in 1× assay buffer). Plates were then centrifuged for 1 min at 1200 RPM and sealed or lidded. For 4 μL reaction volume, test compounds were therefore diluted 100× to final top concentration of 20 μM. After 90 minute incubation, reactions were quenched by addition of 2 μL/well Promega ADP-Glo Reagent, followed by centrifugation and lidding. After 60 min incubation, 2 μL/well Promega Kinase Detection Reagent was added, plates centrifuged, and incubated for 30 min. Plates were then read using Luminescence method on BMG PHERAstar FSX plate reader. Percent inhibition was calculated and IC50s were determined using 4-parameter fit in Genedata Screener. Labcyte Echo acoustic dispenser was used for compound addition, and Formulatrix Tempest liquid handler was used for all reagent dispenses.
Background: ADP-Glo turns the ADP formed in a reaction into a luminescent signal.

The next assay has as its target DGKζ (Homo sapiens (Human), UniProt Q13574). Kind of assay: In vitro DGKζ inhibition assay (ADP-Glo). As to conditions: His-tagged human recombinant DGKζ 0.4 nM, 30 μM ATP, 20 μM DLG. The class given is biochemical. The protocol: as §1, §2

DGKζ, sequence (Q13574 whole entry): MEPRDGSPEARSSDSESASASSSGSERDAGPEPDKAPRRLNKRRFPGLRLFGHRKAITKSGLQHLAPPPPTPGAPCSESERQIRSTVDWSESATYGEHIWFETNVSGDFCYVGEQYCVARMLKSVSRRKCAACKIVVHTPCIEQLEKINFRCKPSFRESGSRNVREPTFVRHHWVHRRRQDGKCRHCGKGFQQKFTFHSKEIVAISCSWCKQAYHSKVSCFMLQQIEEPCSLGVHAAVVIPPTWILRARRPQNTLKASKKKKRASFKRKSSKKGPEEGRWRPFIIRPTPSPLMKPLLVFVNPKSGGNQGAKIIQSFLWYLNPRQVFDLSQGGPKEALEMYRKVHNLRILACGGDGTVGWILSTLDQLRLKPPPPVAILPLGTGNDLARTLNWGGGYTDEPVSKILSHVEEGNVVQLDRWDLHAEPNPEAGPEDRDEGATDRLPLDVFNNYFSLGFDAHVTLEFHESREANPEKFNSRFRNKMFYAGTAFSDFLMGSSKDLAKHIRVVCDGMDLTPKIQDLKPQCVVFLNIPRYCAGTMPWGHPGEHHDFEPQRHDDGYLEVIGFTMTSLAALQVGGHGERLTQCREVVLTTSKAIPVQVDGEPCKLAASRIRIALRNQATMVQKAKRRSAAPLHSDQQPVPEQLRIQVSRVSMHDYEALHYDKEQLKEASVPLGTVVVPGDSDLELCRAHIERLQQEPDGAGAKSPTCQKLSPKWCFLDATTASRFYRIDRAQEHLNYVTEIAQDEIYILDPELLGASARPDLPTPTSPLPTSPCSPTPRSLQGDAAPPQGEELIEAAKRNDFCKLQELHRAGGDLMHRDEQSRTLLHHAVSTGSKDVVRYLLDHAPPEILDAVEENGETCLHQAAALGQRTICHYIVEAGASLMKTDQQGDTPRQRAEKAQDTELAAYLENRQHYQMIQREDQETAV
DGKα, sequence (P23743 whole entry): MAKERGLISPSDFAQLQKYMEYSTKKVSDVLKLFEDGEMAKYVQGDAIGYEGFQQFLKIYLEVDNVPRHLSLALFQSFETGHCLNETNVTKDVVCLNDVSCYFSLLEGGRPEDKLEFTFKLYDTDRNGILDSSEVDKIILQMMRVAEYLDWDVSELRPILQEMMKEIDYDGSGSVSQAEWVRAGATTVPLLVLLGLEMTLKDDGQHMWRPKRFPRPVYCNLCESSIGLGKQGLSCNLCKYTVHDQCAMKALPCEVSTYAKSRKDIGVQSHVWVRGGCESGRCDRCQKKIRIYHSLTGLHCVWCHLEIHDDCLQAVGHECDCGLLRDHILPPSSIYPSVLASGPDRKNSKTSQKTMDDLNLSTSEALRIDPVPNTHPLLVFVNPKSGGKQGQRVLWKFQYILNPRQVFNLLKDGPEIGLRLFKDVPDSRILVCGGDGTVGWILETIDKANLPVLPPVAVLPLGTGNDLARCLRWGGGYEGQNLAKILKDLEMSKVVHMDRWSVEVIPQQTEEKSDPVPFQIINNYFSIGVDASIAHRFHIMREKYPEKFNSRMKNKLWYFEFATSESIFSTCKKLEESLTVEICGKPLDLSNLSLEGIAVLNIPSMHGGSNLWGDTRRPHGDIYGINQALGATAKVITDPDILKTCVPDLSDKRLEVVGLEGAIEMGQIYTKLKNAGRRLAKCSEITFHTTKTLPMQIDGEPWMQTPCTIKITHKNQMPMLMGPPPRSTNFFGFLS

Regarding `Cn1c(=O)c2c(c3ncc(C#N)cc31)N1CCN(C(c3ccc(F)cc3)c3ccc(F)cc3)C[C@@H]1COC2=O` [Example 9, (R)-11-(Bis(4-fluorophenyl)methyl)-5-methyl-6,7-dioxo-5,7,9,9a,10,11,12,13-octahydro-6H-pyrazino[2′,1′:3,4][1,4]oxazepino[6,5-c][1,5]naphthyridine-3-carbonitrile], the IC50 was at most 40 nM at DGKα and over 2000 nM on DGKζ.

As to `Cn1c(=O)c2c(c3cc(CC#N)ccc31)N1CCN(C(c3ccc(F)cc3)c3ccc(F)cc3)C[C@@H]1COC2=O` [Example 8, (R)-2-(3-(Bis(4-fluorophenyl)methyl)-9-methyl-7,8-dioxo-1,2,3,4,4a,5,8,9-octahydro-7H-pyrazino[2′,1′:3,4][1,4]oxazepino[6,5-c]quinolin-12-yl)acetonitrile], the IC50 on DGKζ lay within 40 to 200 nM.

For `CN1C(=O)CC2CN(C(c3ccc(F)cc3)c3ccc(F)cc3)CCN2c2c1c(=O)n(C)c1ccc(C#N)nc21` (single isomer, unassigned) [Example 1, 11-(Bis(4-fluorophenyl)methyl)-5,7-dimethyl-6,8-dioxo-5,6,7,8,9,9a,10,11,12,13-decahydropyrazino[1′,2′: 4,5][1,4]diazepino[2,3-c][1,5]naphthyridine-2-carbonitrile], the half-inhibitory concentration (IC50) on DGKα was at most 40 nM; on DGKζ it was 200 to 2000 nM.

As for `Cn1c(=O)c2c(c3ncc(CC#N)cc31)N1CCN(C(c3ccc(F)cc3)c3ccc(F)cc3)C[C@@H]1COC2=O` [Example 10, (R)-2-(11-(Bis(4-fluorophenyl)methyl)-5-methyl-6,7-dioxo-5,7,9,9a,10,11,12,13-octahydro-6H-pyrazino[2′,1′:3,4][1,4]oxazepino[6,5-c][1,5]naphthyridin-3-yl)acetonitrile], the 50% inhibitory concentration (IC50) on DGKζ was over 2000 nM.

Take `Cn1c(=O)c2c(c3nc(CC#N)ccc31)N1CCN(C(c3ccc(F)cc3)c3ccc(F)cc3)C[C@@H]1COC2=O` [Example 4, (R)-2-(11-(Bis(4-fluorophenyl)methyl)-5-methyl-6,7-dioxo-5,7,9,9a,10,11,12,13-octahydro-6H-pyrazino[2′,1′:3,4][1,4]oxazepino[6,5-c][1,5]naphthyridin-2-yl)acetonitrile]: the IC50 on DGKα and on DGKζ was at most 40 nM in each case.

Regarding `Cn1c(=O)c2c(c3nc(CC#N)cnc31)N1CCN(C(c3ccc(F)cc3)c3ccc(F)cc3)C[C@@H]1COC2=O` [Example 5, (R)-2-(11-(Bis(4-fluorophenyl)methyl)-5-methyl-6,7-dioxo-5,7,9,9a,10,11,12,13-octahydro-6H-pyrazino[2,1-c]pyrazino[2′,3′: 5,6]pyrido[4,3-e][1,4]oxazepin-2-yl)acetonitrile], the IC50 at DGKα and at DGKζ was 40 to 200 nM each time.

As to `C[C@@H]1CN2c3c(c(=O)n(C)c4ccc(C#N)nc34)C(=O)OC[C@H]2CN1C(c1ccc(F)cc1)c1ccc(F)cc1` [Example 7, (9aR,12R)-11-(Bis(4-fluorophenyl)methyl)-5,12-dimethyl-6,7-dioxo-5,7,9,9a,10,11,12,13-octahydro-6H-pyrazino[2′,1′:3,4][1,4]oxazepino[6,5-c][1,5]naphthyridine-2-carbonitrile], the results for the IC50 at DGKα and on DGKζ were at most 40 nM and 200 to 2000 nM, respectively.

As for `Cn1c(=O)c2c(c3nc(C#N)ccc31)N1CCN(C(c3ccc(F)cc3)c3ccc(F)cc3)C[C@@H]1COC2=O` [Example 3, (R)-11-(Bis(4-fluorophenyl)methyl)-5-methyl-6,7-dioxo-5,7,9,9a,10,11,12,13-octahydro-6H-pyrazino[2′,1′:3,4][1,4]oxazepino[6,5-c][1,5]naphthyridine-2-carbonitrile], the IC50 on DGKα and on DGKζ was at most 40 nM in each case.

Consider `CN1C(=O)CC2CN(C(c3ccc(F)cc3)c3ccc(F)cc3)CCN2c2c1c(=O)n(C)c1ccc(C#N)nc21` (single isomer, unassigned) [Example 2, 11-(Bis(4-fluorophenyl)methyl)-5,7-dimethyl-6,8-dioxo-5,6,7,8,9,9a,10,11,12,13-decahydropyrazino[1′,2′: 4,5][1,4]diazepino[2,3-c][1,5]naphthyridine-2-carbonitrile], for which the IC50 on DGKα is 40 to 200 nM; on DGKζ, at most 40 nM.

Take `Cn1c(=O)c2c(c3nc(C#N)ccc31)N1CCN(C(c3ccc(F)cc3)c3ccc(F)cc3)C[C@H]1COC2=O` [Example 6, (S)-11-(Bis(4-fluorophenyl)methyl)-5-methyl-6,7-dioxo-5,7,9,9a,10,11,12,13-octahydro-6H-pyrazino[2′,1′:3,4][1,4]oxazepino[6,5-c][1,5]naphthyridine-2-carbonitrile]: the half-inhibitory concentration (IC50) on DGKα and at DGKζ was at most 40 nM throughout.

The values are drawn from patent US20240025900A1, “TETRACYCLIC COMPOUNDS AS DGK INHIBITORS” (Incyte Corporation, priority 2022, published 2024).
